According to US20090012152A1, “Use of Tetramic Acid Derivatives for Controlling Insects from the Genus of the Plane Lice (Sternorrhyncha)” (Bayer CropScience Aktiengesellschaft, priority 2005, published 2009):

Key:
Type in all cases: in vivo
Psylla piri = experiment: Example 6: pear trees treated against Psylla piri; conditions: larvae on shoots, % a.i.: amitraz 0.05, I-9, I-2, I-1 0.096
Description: In three replications, in each case 4 about 4-year-old pear trees of the cultivar “Williams Christ” are treated against Psylla piri. Two applications are carried out at an interval of 11 days using a motor-operated barrow-mounted sprayer. Here, the active compounds Example (I-9) (240 SC), Example (I-2) (240 SC) and Example (I-1) (240 SC) are tested against the commercial standard Amitraz (200 EC) at the stated amounts. The application rate is 2000 l of water/ha.
Evaluation is carried out 3, 10 and 20 days after the last treatment by rating the kill of the larvae in percent on the shoots.

Paratrioza cockerelli = experiment: Example 9: tomatoes treated against Paratrioza cockerelli; conditions: nymphs on leaves, g a.i./ha: Levarage 81, I-4 48
Description: In three replications, plots of a size of 10 m^2 with tomatoes are treated against Paratrioza cockerelli. Application is carried out using a knapsack sprayer operated with pressurized air. Here, the active compound Example (I-4) (240 SC) in a tank mix with 0.2% a.i. of rapeseed oil methyl ester (500 EW) and the commercial standard Leverage (324 SE) are tested at the stated application rates. There are two applications at an interval of 7 days. The application rate is 345 l of water/ha.
Evaluation is carried out 7, 14 and 21 days after the first treatment by rating the kill of the animals (nymphs) on the leaves.

Ceroplastes rubens = experiment: Example 12: satsuma trees treated against Ceroplastes rubens; conditions: 41 days after treatment; live animals counted, Henderson and Tilton; satsuma tree; % a.i.: buprofezin 0.025, I-4 0.0072
Description: In three replications, in each case one about 4-year-old satsuma tree of the cultivar “Nankan 20” is treated against Ceroplastes rubens. Here, the active compound Example (I-4) (240 SC) in a tank mix with 0.1% of rapeseed oil methyl ester (500 EW) at the stated application rate is tested against the commercial standard buprofezin (25 WP) at the stated application rate. The application is carried out using a motor-operated knapsack sprayer. Here, treatment is carried out using an application rate of 400 l of water/ha.
Evaluation is carried out before and 41 days after the treatment by counting the live animals. The efficacy in percent is then calculated according to Henderson and Tilton.

[1] = tested on: Selenaspidius articulatus; experiment: Example 19: orange trees treated against Selenaspidius articulatus; conditions: 100 d after treatment, on leaves, % a.i.: methidathion 0.05, I-9 0.0288, I-4 0.0144
Description: In three replications, 3-year-old orange trees of the cultivar “Pera natal” are treated against Selenaspidius articulatus. The application is carried out using a motor-operated knapsack sprayer. Here, the active compounds Example (I-9) (240 SC) and Example (I-4) (240 SC) at the stated application rate are tested against the standard methidathion (400 EC) in the stated amounts, applied once. The application rate is 3.3 l of water per tree.
Evaluation is carried out 100 days after the treatment by rating the kill on the leaves.

Bemisia tabaci = experiment: Example 38: melons treated against Bemisia tabaci; conditions: nymphs on leaves, g a.i./ha: Confidor 100, I-4 72
Description: In three replications, plots of a size of about 7.5 m^2 with melons of the cultivar “Piel DE Sapo” are treated against Bemisia tabaci. The application is carried out with a motor-operated knapsack sprayer. Here, the active compound Example (I-4) (240 SC), in a tank mix with 0.1% of a.i. of rapeseed oil methyl ester (500 EW), and the commercial standard Confidor (200 SL) are applied at the stated application rates. Two applications are carried out, at an interval of 7 days and at an application rate of 233 l of water/ha.
Evaluation is carried out 7 and 15 days after the second treatment by rating the kill of the animals (nymphs) on the leaves.

Nasonovia ribisnigri = experiment: Example 42: head lettuce treated against Nasonovia ribisnigri; conditions: on plants, g a.i./ha: Pirimor 150, I-4 48, I-8 42
Description: In four replications, plots of a size of 5 m^2 with head lettuce are, two weeks after transplantation, treated against Nasonovia ribisnigri. The application is carried out using a knapsack sprayer operated with pressurized air. Here, the active compounds Example (I-4) (240 SC) and Example (I-8) (240 SC) are, in a tank mix with 0.2% a.i. of rapeseed oil methyl ester (500 EW), tested against the commercial standard Pirimor, at the stated application rates. The application rate is 500 l of water/ha.
Evaluation is carried out 7, 14 and 26 days after the treatment by rating the kill of the animals on the plants.

Myzus persicae [2] = experiment: Example 46: head lettuce treated against Myzus persicae; conditions: nymphs on plants, g a.i./ha: endosulfan 1120, I-4 48
Description: In four replications, plots of a size of about 33 m^2 with head lettuce of the cultivar “PIC 714” are treated against Aulacorthum solani, Macrosiphum euphorbiae and Myzus persicae. The application is carried out using a tractor sprayer. Here, the active compound Example (I-4) (240 SC), in a tank mix with 0.2% a.i. of rapeseed oil methyl ester (500 EW), is tested against the commercial standard endosulfan (360 EC), at the stated application rates. The application rate is 187 l of water/ha. Two treatments are carried out, at an interval of 22 days.
Evaluation is carried out 8, 22, 30 and 40 days after the first treatment by rating the kill of the nymphs on the plants.

Myzus persicae [3] = experiment: Example 50: tomatoes treated against Myzus persicae; conditions: nymphs on leaves, g a.i./ha: acetamiprid 50, I-9 36, I-4 48
Description: In two replications, plots of a size of about 43 m^2 with tomatoes of the cultivar “Yaqui” are treated against Myzus persicae. The application is carried out using a motor-operated knapsack sprayer. Here, the active compounds Example (I-9) (240 SC) and Example (I-4) (240 SC), in a tank mix with 0.1% a.i. of rapeseed oil methyl ester (500 EW), and the standard acetamiprid (20 WP) are applied at the stated application rates. The application rate is 208 l of water/ha.
Evaluation is carried out 3 and 10 days after the treatment by rating the kill of the nymphs on the leaves.

| Compound | Kill (%) 3 d (Psylla piri; 3 d after last of two treatments) [%] | Kill (%) 10 d (Psylla piri; 10 d after last of two treatments) [%] | Kill (%) 20 d (Psylla piri; 20 d after last of two treatments) [%] | Kill (%) 7 d (Paratrioza cockerelli; 7 d after first of two treatments) [%] | Kill (%) 14 d (Paratrioza cockerelli; 14 d after first of two treatments) [%] | Kill (%) 21 d (Paratrioza cockerelli; 21 d after first of two treatments) [%] | Effect (%) (Ceroplastes rubens) | Kill (%) 100 d [1] [%] | Kill (%) 7 d (Bemisia tabaci; 7 d after second treatment) [%] | Kill (%) 15 d (Bemisia tabaci; 15 d after second treatment) [%] | Kill (%) 7 d (Nasonovia ribisnigri; 7 d after treatment) [%] | Kill (%) 14 d (Nasonovia ribisnigri; 14 d after treatment) [%] | Kill (%) 26 d (Nasonovia ribisnigri; 26 d after treatment) [%] | Kill (%) 8 d (Myzus persicae [2]; 8 d after first of two treatments) [%] | Kill (%) 22 d (Myzus persicae [2]; 22 d after first of two treatments) [%] | Kill (%) 30 d (Myzus persicae [2]; 30 d after first of two treatments) [%] | Kill (%) 3 d (Myzus persicae [3]; 3 d after treatment) [%] | Kill (%) 10 d (Myzus persicae [3]; 10 d after treatment) [%] |
| --- | --- | --- | --- | --- | --- | --- | --- | --- | --- | --- | --- | --- | --- | --- | --- | --- | --- | --- |
| CCOC(=O)OC1=C(c2cc(C)ccc2Br)C(=O)NC12CCC(OC)CC2 (stereo not drawn) [Example (I-2)] | 96.7 | 99 | 97.9 | – | – | – | – | – | – | – | – | – | – | – | – | – | – | – |
| CCOC(=O)OC1=C(c2cc(C)ccc2C)C(=O)NC12CCC(OC)CC2 (stereo not drawn) [Example (I-4)] | – | – | – | 71.3 | 90.3 | 95.5 | 98 | 70 | 85.3 | 95.5 | 92.3 | 95.7 | 95.1 | 95 | 100 | 88 | 92.6 | 95.9 |
